Results published in patent US8637530B2, “8-(3-amino-piperidin-1-yl)-xanthines, their preparation, and their use as pharmaceuticals” (Boehringer Ingelheim International GmbH, priority 2005, dated 2014).

What was measured:
[1] = Absorption characteristics (water uptake / hygroscopic behaviour as a function of relative humidity); format: physicochemical; conditions: for change into a hydrate phase: with rising relative humidity (free base: above 50% r.h.); for hygroscopic characteristics / behaviour: absorption characteristics, FIG. 7 / FIG. 10
[2] = Humidity-dependent X-ray powder images (phase change); format: physicochemical
Description: The X-ray powder diagrams, with one exception, were recorded using an STOE Stadi P X-ray powder diffractometer. This diffractometer operates with CuKα1 radiation (gamma=1.5406 Angstroms) and a location-sensitive detector. The X-ray generator was operated at 40 mA and 40 kV.
The X-ray powder diagram of the monohydrate of the free base was recorded with a Bruker D8 Advance X-ray powder diffractometer on which a special air humidity cell made by MRI had been placed. The diagram was recorded at about 72% r.h. The Bruker D8 Advance operates with CuKα radiation (gamma=1.5418 Angstroms) and also a location-sensitive detector. The X-ray generator was operated at 30 mA and 40 kV.

SMILES	water taken up ([1]; above 50% r.h., FIG. 4)	relative humidity up to which the anhydrous form is stable ([1]; anhydrous form, FIG. 4)	reversibility of the conversion into the monohydrate ([1]; relative humidity brought back to 50% or less)	change into a hydrate phase [1]	relative humidity at which water is absorbed ([1]; FIG. 7) [% r.h.]	hygroscopic characteristics / behaviour [1]	phase change ([2]; above 80% r.h.)	water uptake over relative humidity ([1]; whole range of relative humidities, FIG. 10)	phase change ([2]; humidity range from 10-90 r.h.)
CC#CCn1c(N2CCC[C@@H](N)C2)nc2c1c(=O)n(Cc1ncccc1C#N)c(=O)n2C [Example 2, 1-[(3-cyano-pyridin-2-yl)methyl]-3-methyl-7-(2-butyn-1-yl)-8-(3-(R)-amino-piperidin-1-yl)-xanthine]	about 4%	up to 50%	totally reversible	changes into a monohydrate					
CC#CCn1c(N2CCC[C@@H](N)C2)nc2c1c(=O)n(Cc1ncccc1C#N)c(=O)n2C.Cl [Example 3, 1-[(3-cyano-pyridin-2-yl)methyl]-3-methyl-7-(2-butyn-1-yl)-8-[(R)-3-amino-piperidin-1-yl]-xanthine monohydrochloride]				no reversible change into a hydrate phase	> 80	less marked hygroscopic characteristics	no phase change		
CC#CCn1c(N2CCC[C@@H](N)C2)nc2c1c(=O)n(Cc1ncccc1C#N)c(=O)n2C.Cl.Cl [Example 4, 1-[(3-cyano-pyridin-2-yl)methyl]-3-methyl-7-(2-butyn-1-yl)-8-[(R)-3-amino-piperidin-1-yl]-xanthine-dihydrochloride]				no reversible change into a hydrate phase		unremarkable hygroscopic behaviour		takes up a certain amount of water continuously over the whole range of relative humidities	no phase change
